In ChEMBL document CHEMBL3585312, “Anti-MRSA activity of isoplagiochin-type macrocyclic bis(bibenzyl)s is mediated through cell membrane damage” (2015) one finds MIC and Activity data, which are given here for four compounds.

Format in all cases: functional
The test system of experiment [1] is Staphylococcus aureus. Nature of the experiment: Antimicrobial activity against methicillin-resistant Staphylococcus aureus N315 after 24 hrs by broth microdilution method. Particulars: N315, 24 h. On the technique in general: Broth dilution looks for growth in wells or tubes with falling amounts of substance.
Experiment [2] concerns Staphylococcus aureus. Kind of experiment: Induction of methicillin-resistant Staphylococcus aureus N315 membrane damage assessed as increase in Na+ concentration at 10 ug/ml after 90 mins by coupled plasma optical emission spectrometry.
Experiment [3] relates to Staphylococcus aureus. Nature of the experiment: Induction of methicillin-resistant Staphylococcus aureus N315 membrane damage assessed as decrease in K+ concentration at 10 ug/ml after 90 mins by coupled plasma optical emission spectrometry.
The subject of experiment [4] is Staphylococcus aureus. Kind of experiment: Induction of methicillin-resistant Staphylococcus aureus N315 membrane damage using ethidium bromide assessed as fluorescence intensity at 100 ug/ml by ethidium bromide outflow assay.
For experiment [5], the system named is Staphylococcus aureus. Kind of experiment: Induction of methicillin-resistant Staphylococcus aureus N315 membrane damage using ethidium bromide assessed as fluorescence intensity at 100 ug/ml by ethidium bromide inflow assay.
Experiment [6] relates to Staphylococcus aureus. Nature of the experiment: Induction of methicillin-resistant Staphylococcus aureus N315 membrane damage using ethidium bromide assessed as fluorescence intensity at 10 ug/ml by ethidium bromide inflow assay.
Experiment [7] concerns Staphylococcus aureus. Nature of the experiment: Induction of methicillin-resistant Staphylococcus aureus N315 membrane damage using ethidium bromide assessed as fluorescence intensity at 10 ug/ml by ethidium bromide outflow assay.

Values after ≈ are worked out from the molar mass of the structure shown. Active and inactive are the calls of the source. The calls are words filed in the database; no cut-off is given here.

In the case of `Oc1ccc2c(c1)CCc1ccccc1-c1cccc(c1)CCc1ccc-2c(O)c1`, in the experiment with Staphylococcus aureus [1], the MIC – broadly, the lowest concentration that inhibits growth of the organism – stood at 2 µg/mL (≈ 5.1 µM).
Consider `Oc1ccc2c(c1)CCc1ccc(cc1)-c1cccc(c1)CCc1ccc-2c(O)c1`, for which the outcome with Staphylococcus aureus [2], in the experiment on Staphylococcus aureus [3], with Staphylococcus aureus [4] and in the experiment on Staphylococcus aureus [5] was inactive.
Consider `Oc1ccc2c(c1)CCc1ccc(cc1)Oc1cccc(c1)CCc1ccc-2c(O)c1`, for which the result in the experiment with Staphylococcus aureus [6] and in the experiment with Staphylococcus aureus [7] was Active.
On to `Oc1ccc2c(c1)CCc1cccc(c1)-c1cccc(c1)CCc1ccc-2c(O)c1`, for which the outcome in the experiment with Staphylococcus aureus [6], in the experiment with Staphylococcus aureus [2], with Staphylococcus aureus [3] and with Staphylococcus aureus [7] was Active. The compound further had an MIC with Staphylococcus aureus [1] of 0.5 µg/mL (≈ 1.27 µM).
